From patent publication US20140106967A1, “AUXIN PLANT GROWTH REGULATORS” (The Governors of The University of Alberta, priority 2011, published 2014)

Legend:
[1] = system: PsGA20ox1, PsGA3ox1, PsGA2ox1; assay: GA biosynthesis/catabolism gene expression in pea pericarp; format: in vivo, Pisum sativum; details: 24 h treatment period
Method: (§1) During early pea fruit growth, the physiological roles of 4-chloroindole-3-acetic acid (4-Cl-IAA) and IAA, both natural pea auxins, in regulating gibberellin (GA) 20-oxidase gene expression (PsGA20ox1) were tested with 4-position, ring-substituted auxins that have a range of biological activities (fruit growth). The effect of seeds, and natural and synthetic auxins (4-Cl-IAA, and IAA; 4-Me-IAA, 4-Et-IAA and 4-F-IAA, respectively), and auxin concentration (4-Cl-IAA) on PsGA20ox1 mRNA levels in pea pericarp were investigated over a 24 h treatment period. The ability of certain 4-substituted auxins to increase PsGA20ox1 mRNA levels in deseeded pericarp was correlated with their ability to stimulate pericarp growth.

[2] = system: pea pericarp; assay: Split-pericarp assay: growth of deseeded pea pericarps attached to the plant; format: in vivo, Pisum sativum
From the text: In addition to GAs, developing pea seeds and pericarps contain two auxins, 4-chloroindole-3-acetic acid (4-Cl-IAA) and indole-3-acetic acid (IAA) (Magnus et al. 1997). A split-pericarp assay where test compounds are applied to the inner wall of split and deseeded pericarps that are still attached to the plant has been developed to examine the effects of exogenously applied growth substances on pericarp growth.
as §1

[3] = system: pea pericarp; details: cited from earlier work; for substitution for seeds in stimulating pericarp growth: deseeded pericarps, early pericarp growth (2 DAA); for substitution for the seeds in maintaining pea fruit growth in planta: in vivo
[4] = system: tomato fruit; details: cited from earlier work
[5] = system: AtGA20ox and AtGA3ox genes; details: non-pollinated fruits; cited from earlier work
[6] = system: pea 'Carneval'; assay: Growth chamber experiment 1, pea 'Carneval' sprayed with 4-Cl-IAA (Table P2); format: in vivo, Pisum sativum L.; details: for Seed yield per plant: sprayed near or at anthesis
Method: For growth chamber experiment, seeds of ‘Carneval’ were planted at an approximate depth of 2.5 cm in 3-L plastic pots (4 seeds per pot and thinned to 2 plants per pot after approximately 2 weeks) in 1:1 Sunshine #4 potting mix (Sun Gro Horticulture, Vancouver, Canada) and sand. The experiment was arranged in a completely randomized design and grown at the University of Alberta in a growth chamber set at 19° C./17° C. (day/night) with a 16/8-h photoperiod under cool-white fluorescent lights (54W/835/HO high fluorescent bulbs, Phillips, Holland; 350 μE m^2 s^−2). For the heat stress treatment, plants were placed in a separate growth chamber with a 16/8-h photoperiod under cool-white fluorescent lights (F54/15/835/HO high fluorescent bulbs, Phillips, Holland) for 4 days where the temperature was cycled over a 24 hr period as follows: 33° C. air temperature for 6 hours per day (between 11:00 and 17:00 hrs) for 4 days during the light cycle; the remainder of the light cycle was maintained at a 22° C. air temperature; the dark cycle was maintained at 19° C. After the 4 day heat treatment, the plants were returned to the same growth chamber they were originally grown in, where they were taken to maturity.
For experiment 1, aqueous 4-chloro-indole-3-acetic acid (4-Cl-IAA) solutions at 1×10^−7, 1×10^−6, or 1×10^−5M in 0.1% (v/v) Tween 80 or aqueous 0.1% (v/v) Tween 80 (control) were applied one time as a spray to the entire plant to cover when the first flowering node of the main stem was near or at anthesis.

[7] = system: PsGA20ox1, PsGA3ox1, PsGA2ox1; details: in vivo; cited from earlier work
[8] = system: canola cv. Peace; assay: Greenhouse canola study, foliar auxin spray at green bud stage, with or without heat stress (Tables C1-C4); format: in vivo, Brassica napus
Method: Canola seeds (Brassica napus) from the cultivar Peace were planted at an approximate depth of 1 cm in 5 inch square plastic pots (6 inch pot depth; 4 seeds per pot) in 1:1 Sunshine #4 potting mix (Sun Gro Horticulture, Vancouver, Canada) and sand. The seedlings were thinned to one seedling per pot approximately 2 weeks after seeding. Plants were grown at the University of Alberta in a greenhouse from Nov. 14, 2011 to Mar. 5, 2012. The average temperature was approximately 18° C. day/16° C. night (Nov. 14, 2011 to Feb. 8, 2012) then 21° C. day/19° C. night from Feb. 8 to Mar. 5, 2012. The plants also received supplemental lighting daily (average photon flux density of 250 μE m^−2s^−2) for 16 hours per day (from 6 am to 10 pm).
The auxins, 4-methyl-indole-3-acetic acid (4-ME-IAA) or 4-chloro-indole-3-acetic acid (4-Cl-IAA) at 1×10^−7, 1×10^−6, 1×10^−5, or 1×10^−4M in aqueous 0.1% (v/v) Tween 80 or a control solution (aqueous 0.1% [v/v] Tween 80) were applied one time as a foliar spray to canola plants at the green bud stage (BBCH scale 51; prior to bolting when flower buds are visible from above, but they are tightly clustered and have not extended above smallest leaves surrounding the inflorescence). The experiment was arranged in a completely randomized design in the greenhouse.
The heat stress treatment was imposed by moving plants to receive the heat stress from the greenhouse into a growth chamber for 6 days. The light cycle began at 7:00 hours at a 19° C. air temperature. The heat treatment began at 11:00 hours (33° C. air temperature) and was maintained for 6 hours (until 17:00 hours). Following the heat treatment, the remainder of the light cycle was maintained at a 22° C. air temperature. The dark cycle (began at 23:00 hours) was maintained at 17° C. The photoperiod was 16 h light/8 h dark at an average photon flux density of 492 μE m^−2s^−2 using 54W/835/HO high fluorescent bulbs, Phillips, Holland. This heat treatment cycle was imposed for 6 days. The plants were returned to the greenhouse after the heat stress treatment to develop to maturity.

[9] = 1×10^−4 M, heat stress 33° C. 6 h/day, 6 days (Table C4)
[10] = 1×10^−4 M, non-heat stress (Table C3)
[11] = 1×10^−5 M, heat stress 33° C. 6 h/day, 6 days (Table C4)
[12] = 1×10^−5 M, non-heat stress (Table C3)
[13] = 1×10^−6 M, heat stress 33° C. 6 h/day, 6 days (Table C4)
[14] = 1×10^−6 M, non-heat stress (Table C3)
[15] = 1×10^−7 M, heat stress 33° C. 6 h/day, 6 days (Table C4)
[16] = 1×10^−7 M, non-heat stress (Table C3)

SMILES: O=C(O)Cc1c[nH]c2ccccc12 [IAA, indole-3-acetic acid, reference compound]
- PsGA20ox1 mRNA levels in deseeded pericarp [1]: not effective
- pericarp growth (biological activity) [2]: not effective
- substitution for seeds in stimulating pericarp growth [3]: cannot
- substitution for the seeds in maintaining pea fruit growth in planta [3]: not

SMILES: O=C(O)COc1ccc(Cl)cc1Cl [2,4-D]
- parthenocarpic fruit growth [4]: induced parthenocarpic tomato fruit growth
- expression of specific AtGA20ox and AtGA3ox genes [5]: up-regulated

SMILES: O=C(O)Cc1c[nH]c2cccc(F)c12 [4-F-IAA]
- PsGA20ox1 mRNA levels in deseeded pericarp [1]: minimal or no increase
- pericarp growth (biological activity) [2]: minimal or no increase

SMILES: CCc1cccc2[nH]cc(CC(=O)O)c12 [4-Et-IAA]
- PsGA20ox1 mRNA levels in deseeded pericarp [1]: minimal or no increase
- pericarp growth (biological activity) [2]: minimal or no increase

SMILES: O=C(O)Cc1c[nH]c2cccc(Cl)c12 [4-Cl-IAA, 4-chloroindole-3-acetic acid]
- increase in seed yield vs control ([6]; 1×10^−5 M): 62%
- Seed yield per plant ([6]; 1×10^−5 M): 18.28 ± 1.55 g
- increase in seed yield vs control ([6]; 1×10^−6 M): 65%
- Seed yield per plant ([6]; 1×10^−6 M): 18.61 ± 1.65 g
- Seed yield per plant ([6]; 1×10^−7 M): 13.60 ± 1.33 g
- PsGA20ox1 mRNA levels in deseeded pericarp [1]: greatest increase
- gene expression of the GA catabolic gene PsGA2ox1 [7]: repress
- pericarp GA biosynthesis gene expression, PsGA20ox1 and PsGA3ox1 [7]: stimulate
- leaf epinasty ([8]; 1×10^−4 M, 24 hours after treatment, milder under heat stress): leaf epinasty was observed
- % pod set [8, 9]: 49 ± 4%
- Seed yield [8, 9]: 4.9 ± 0.8 g
- Total number of flowers [8, 9]: 312 ± 32
- Total number of pods with developing seeds [8, 9]: 151 ± 17
- Total number of racemes [8, 9]: 12 ± 1
- Total number undeveloped pods [8, 9]: 45 ± 15
- % pod set [8, 10]: 54 ± 4%
- Seed yield [8, 10]: 4.0 ± 0.3 g
- Total number of flowers [8, 10]: 201 ± 24
- Total number of pods with developing seeds [8, 10]: 106 ± 8
- Total number of racemes [8, 10]: 8 ± 1
- Total number undeveloped pods [8, 10]: 17 ± 4
- reduction in number of racemes per plant vs control ([8]; 1×10^−4 M, non-stress): 33%
- reduction in seed yield vs control ([8]; 1×10^−4 M, non-stress): 26%
- reduction in total number of developing pods per plant vs control ([8]; 1×10^−4 M, non-stress): 31%
- % pod set [8, 11]: 48 ± 2%
- Seed yield [8, 11]: 5.5 ± 1.0 g
- Total number of flowers [8, 11]: 414 ± 65
- Total number of pods with developing seeds [8, 11]: 198 ± 33
- Total number of racemes [8, 11]: 14 ± 2
- Total number undeveloped pods [8, 11]: 34 ± 6
- increase in total number of pods with developing seeds per plant vs control ([8]; 1×10^−5 M, non-heat stress): 27%
- % pod set [8, 12]: 57 ± 6%
- Seed yield [8, 12]: 5.8 ± 1.0 g
- Total number of flowers [8, 12]: 362 ± 53
- Total number of pods with developing seeds [8, 12]: 195 ± 21
- Total number of racemes [8, 12]: 14 ± 2
- Total number undeveloped pods [8, 12]: 47 ± 19
- % pod set [8, 13]: 53 ± 3%
- Seed yield [8, 13]: 6.8 ± 0.5 g
- Total number of flowers [8, 13]: 430 ± 39
- Total number of pods with developing seeds [8, 13]: 229 ± 30
- Total number of racemes [8, 13]: 15 ± 1
- Total number undeveloped pods [8, 13]: 42 ± 5
- seed yield vs control ([8]; 1×10^−6 M, mild heat stress): significant increase
- % pod set [8, 14]: 59 ± 4%
- Total number of flowers [8, 14]: 290 ± 26
- Total number of pods with developing seeds [8, 14]: 174 ± 25
- Total number of racemes [8, 14]: 12 ± 1
- Total number undeveloped pods [8, 14]: 29 ± 4
- % pod set [8, 15]: 46 ± 3%
- Seed yield [8, 15]: 6.0 ± 0.9 g
- Total number of flowers [8, 15]: 443 ± 70
- Total number of pods with developing seeds [8, 15]: 197 ± 15
- Total number of racemes [8, 15]: 13 ± 2
- Total number undeveloped pods [8, 15]: 43 ± 14
- increase in percent pod set vs control ([8]; 1×10^−7 M, non-heat stress): 21%
- increase in total number of pods with developing seeds per plant vs control ([8]; 1×10^−7 M, non-heat stress): 18%
- % pod set [8, 16]: 64 ± 4%
- Seed yield [8, 16]: 6.2 ± 0.6 g
- Total number of flowers [8, 16]: 287 ± 29
- Total number of pods with developing seeds [8, 16]: 181 ± 14
- Total number of racemes [8, 16]: 10 ± 1
- Total number undeveloped pods [8, 16]: 26 ± 9
- pericarp growth (biological activity) [2]: greatest increase
- substitution for seeds in stimulating pericarp growth [3]: can substitute for seeds in stimulating pericarp growth
- substitution for the seeds in maintaining pea fruit growth in planta [3]: can substitute for the seeds
